Patent publication US7329652B2, “Diaminotriazole compounds useful as protein kinase inhibitors” (Vertex Pharamaceuticals Incorporated, priority 2004, dated 2008)
Read-outs that look alike come from different tables or passages of the source.

Legend:
JAK-2 enzyme = JAK-2 enzyme (Homo sapiens, UniProt O60674); assay: JAK2 inhibition assay (radiometric 33P filter assay); type: biochemical
How it was run: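 JAK-2 enzyme in 100 mM HEPES pH 7.4, 1 mM DTT, 10 mM MgCl2, 25 mM NaCl, 0.01% BSA, with final 12 μM [33P]ATP and 15 μM poly(Glu)4Tyr. Reactions ran 20 min at 25 °C and were stopped with TCA. 33P incorporation was counted after glass-fibre filtration.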

JAK3 = target: T1, JAK3 (Homo sapiens, UniProt P52333); assay: JAK3 inhibition assay (radiometric 33P filter assay); type: biochemical
T1 sequence (P52333 1-1124): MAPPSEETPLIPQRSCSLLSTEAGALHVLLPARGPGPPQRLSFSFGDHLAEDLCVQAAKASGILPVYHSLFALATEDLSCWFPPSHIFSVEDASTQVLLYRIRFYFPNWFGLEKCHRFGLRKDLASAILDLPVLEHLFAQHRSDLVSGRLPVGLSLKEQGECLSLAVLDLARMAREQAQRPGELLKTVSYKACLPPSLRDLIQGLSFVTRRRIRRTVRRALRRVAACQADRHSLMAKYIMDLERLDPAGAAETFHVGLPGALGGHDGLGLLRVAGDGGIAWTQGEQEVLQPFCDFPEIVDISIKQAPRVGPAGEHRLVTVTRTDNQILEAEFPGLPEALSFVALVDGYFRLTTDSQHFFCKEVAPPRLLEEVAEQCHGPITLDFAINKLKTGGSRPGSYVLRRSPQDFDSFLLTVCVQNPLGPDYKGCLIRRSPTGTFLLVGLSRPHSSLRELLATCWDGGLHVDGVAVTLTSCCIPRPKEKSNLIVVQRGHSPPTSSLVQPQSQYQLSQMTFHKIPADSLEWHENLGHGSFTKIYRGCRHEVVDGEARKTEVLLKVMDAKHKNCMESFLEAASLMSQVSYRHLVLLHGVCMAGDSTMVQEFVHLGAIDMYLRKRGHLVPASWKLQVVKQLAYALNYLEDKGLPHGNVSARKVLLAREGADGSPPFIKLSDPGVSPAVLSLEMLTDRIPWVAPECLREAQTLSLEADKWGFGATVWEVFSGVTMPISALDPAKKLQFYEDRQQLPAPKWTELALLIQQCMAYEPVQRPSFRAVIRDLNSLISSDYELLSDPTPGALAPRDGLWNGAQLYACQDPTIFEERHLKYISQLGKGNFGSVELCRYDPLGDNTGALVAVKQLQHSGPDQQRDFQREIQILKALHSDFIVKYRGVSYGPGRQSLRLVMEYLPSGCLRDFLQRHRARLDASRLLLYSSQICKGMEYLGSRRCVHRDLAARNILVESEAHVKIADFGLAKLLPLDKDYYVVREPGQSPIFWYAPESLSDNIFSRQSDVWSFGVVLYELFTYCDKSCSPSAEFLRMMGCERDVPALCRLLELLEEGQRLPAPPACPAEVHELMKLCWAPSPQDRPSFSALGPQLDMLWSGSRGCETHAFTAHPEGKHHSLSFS
How it was run: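 Final conditions were 1 nM JAK3, 5 μM ATP (200 uCi/μmole) and 1 μM poly(Glu)4Tyr in 100 mM HEPES pH 7.4, 10 mM MgCl2, 25 mM NaCl, 1 mM DTT and 0.01% BSA. After 20 min at 25 °C the reaction was stopped with TCA. 33P incorporation was counted after glass-fibre filtration.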

[1] = 15 μM poly(Glu)4Tyr, 12 μM ATP, read-out: JAK2 inhibition data (Ki)
[2] = 1 μM poly(Glu)4Tyr, 5 μM ATP, 1 nM JAK3, 25° C., read-out: JAK3 inhibition data (Ki)

Sequence of JAK-2 enzyme (O60674 whole entry, species assumed): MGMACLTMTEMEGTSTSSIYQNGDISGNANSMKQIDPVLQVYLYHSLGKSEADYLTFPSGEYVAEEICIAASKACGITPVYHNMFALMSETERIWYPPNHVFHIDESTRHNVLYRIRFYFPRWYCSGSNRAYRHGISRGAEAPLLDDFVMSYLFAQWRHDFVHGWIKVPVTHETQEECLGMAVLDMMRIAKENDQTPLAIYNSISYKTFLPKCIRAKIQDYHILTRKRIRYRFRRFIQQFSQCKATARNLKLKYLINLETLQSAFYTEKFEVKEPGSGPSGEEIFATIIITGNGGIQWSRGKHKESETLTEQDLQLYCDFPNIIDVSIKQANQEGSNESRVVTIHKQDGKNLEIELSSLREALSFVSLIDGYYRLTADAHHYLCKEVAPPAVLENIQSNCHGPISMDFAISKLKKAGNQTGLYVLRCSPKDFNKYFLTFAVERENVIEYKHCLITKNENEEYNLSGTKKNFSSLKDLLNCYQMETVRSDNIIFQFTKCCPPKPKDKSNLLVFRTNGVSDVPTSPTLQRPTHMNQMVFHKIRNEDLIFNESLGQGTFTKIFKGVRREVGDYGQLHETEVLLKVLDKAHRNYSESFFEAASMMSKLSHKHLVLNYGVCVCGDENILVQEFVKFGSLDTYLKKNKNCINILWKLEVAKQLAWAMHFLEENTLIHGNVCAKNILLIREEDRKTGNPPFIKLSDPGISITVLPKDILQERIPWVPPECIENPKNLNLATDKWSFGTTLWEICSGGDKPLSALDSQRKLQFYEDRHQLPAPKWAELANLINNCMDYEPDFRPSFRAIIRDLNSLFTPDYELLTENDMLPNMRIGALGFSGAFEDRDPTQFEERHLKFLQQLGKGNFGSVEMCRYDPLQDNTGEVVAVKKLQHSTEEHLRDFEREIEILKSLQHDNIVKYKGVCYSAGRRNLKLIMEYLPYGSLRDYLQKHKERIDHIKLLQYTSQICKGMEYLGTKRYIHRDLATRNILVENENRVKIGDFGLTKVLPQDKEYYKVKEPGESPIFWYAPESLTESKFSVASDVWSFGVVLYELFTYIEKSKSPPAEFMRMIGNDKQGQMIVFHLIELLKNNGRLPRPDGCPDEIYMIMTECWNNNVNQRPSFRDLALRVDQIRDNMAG

Structure (SMILES)	Ki (JAK-2 enzyme; [1]) [nM]	Ki (JAK3; [2]) [nM]	Ki (JAK-2 enzyme) [nM]	Ki (JAK3) [nM]
CC(=O)N1[C@H](C)CN(c2cc(-n3nc(Nc4ccc(NC(=O)OCC(C)(C)C)cc4)nc3N)ncn2)C[C@@H]1C [Compound 80]	< 50	< 50	–	–
CC(=O)N1CCCN(c2cc(-n3nc(Nc4ccc(N5CCOCC5)cc4)nc3N)ncn2)CC1 [Compound 2]	< 50	< 50	–	–
CC(=O)N1[C@H](C)CN(c2cc(-n3nc(Nc4ccc(NC(=O)NC(C)C)cc4)nc3N)ncn2)C[C@@H]1C [Compound 69]	< 50	< 50	–	–
CCCOC(=O)N1CCN(c2ccc(Nc3nc(N)n(-c4ccnc(N5CCCN(S(=O)(=O)CC)CC5)c4)n3)cc2)CC1 [Compound 163]	50 to 500	50 to 500	–	–
CC(=O)N1CCCN(c2cc(-n3nc(Nc4ccc(NC(=O)OCC(C)C)cc4)nc3N)ccn2)CC1 [Compound 175]	50 to 500	50 to 500	–	–
CCCOC(=O)N1CCN(c2ccc(Nc3nc(N)n(-c4ccnc(N5CCCN(S(=O)(=O)CCC)CC5)c4)n3)cc2)CC1 [Compound 164]	50 to 500	50 to 500	–	–
COCC(=O)N1CCCN(c2cc(-n3nc(Nc4ccc(N5CCOCC5)cc4)nc3N)ncn2)CC1 [Compound 5]	< 50	< 50	–	–
CC(=O)N1[C@H](C)CN(c2cc(-n3nc(Nc4ccc(NC(=O)CC(C)C)cc4)nc3N)ccn2)C[C@@H]1C [Compound 111]	< 50	< 50	–	–
CC(=O)N1[C@H](C)CN(c2cc(-n3nc(Nc4ccc(NC(=O)CCC(C)C)cc4)nc3N)ccn2)C[C@@H]1C [Compound 110]	< 50	< 50	–	–
CC(=O)N1[C@H](C)CN(c2cc(-n3nc(Nc4ccc(NC(=O)Oc5ccc(C)cc5)cc4)nc3N)ncn2)C[C@@H]1C [Compound 81]	< 50	< 50	–	–
CCCOC(=O)Nc1ccc(Nc2nc(N)n(-c3ccnc(N4C[C@@H](C)N(C(C)=O)[C@@H](C)C4)c3)n2)cc1 [Compound 102]	< 50	< 50	–	–
CC(=O)N1CCCN(c2cc(-n3nc(Nc4ccc(N5CCCCC5)cc4)nc3N)ncn2)CC1 [Compound 13]	< 50	< 50	–	–
CC(=O)N1CCCN(c2cc(-n3nc(Nc4ccc(NC(=O)C5CCOCC5)cc4)nc3N)ncn2)CC1 [Compound 26]	< 50	< 50	–	–
CCCOC(=O)N1CCN(c2ccc(Nc3nc(N)n(-c4ccnc(N5CCCN(C(=O)OCCC)CC5)c4)n3)cc2)CC1 [Compound 160]	50 to 500	50 to 500	–	–
COC(=O)N1CCN(c2ccc(Nc3nc(N)n(-c4cc(N5CCCN(C(C)=O)CC5)ncn4)n3)cc2)CC1 [Compound 45]	< 50	< 50	–	–
CC(=O)N1CCCN(c2cc(-n3nc(Nc4ccc(N5CCN(C(=O)C(C)(C)C)CC5)cc4)nc3N)ncn2)CC1 [Compound 36]	< 50	< 50	–	–
CC(=O)N1[C@H](C)CN(c2cc(-n3nc(Nc4ccc(N5CCN(C(=O)OCC(C)C)CC5)cc4)nc3N)ccn2)C[C@@H]1C [Compound 128]	< 50	< 50	–	–
CCCS(=O)(=O)N1CCCN(c2cc(-n3nc(Nc4ccc(N5CCN(C(=O)OCC)CC5)cc4)nc3N)ncn2)CC1 [Compound 146]	50 to 500	50 to 500	–	–
CCOC(=O)Nc1ccc(Nc2nc(N)n(-c3cc(N4CCCN(C(=O)CC#N)CC4)ncn3)n2)cc1 [Compound 137]	< 50	< 50	–	–
CCOC(=O)Nc1ccc(Nc2nc(N)n(-c3ccnc(N4C[C@@H](C)N(C(C)=O)[C@@H](C)C4)c3)n2)cc1 [Compound 101]	< 50	< 50	–	–
CC(=O)N1CCCN(c2cc(-n3nc(Nc4ccc(N5CCN(C(=O)OC6CCOC6)CC5)cc4)nc3N)ncn2)CC1 (stereo not drawn) [Compound 43]	< 50	< 50	–	–
CCCOC(=O)N1CCN(c2ccc(Nc3nc(N)n(-c4ccnc(N5C[C@@H](C)N(C(C)=O)[C@@H](C)C5)c4)n3)cc2)CC1 [Compound 139]	< 50	< 50	–	–
COC(=O)Nc1ccc(Nc2nc(N)n(-c3ccnc(N4CCCN(C(C)=O)CC4)c3)n2)cc1 [Compound 170]	50 to 500	50 to 500	–	–
CC(=O)N1[C@H](C)CN(c2cc(-n3nc(Nc4ccc(NC(=O)Nc5ccc(C(F)(F)F)cc5)cc4)nc3N)ncn2)C[C@@H]1C [Compound 74]	< 50	< 50	–	–
COC(=O)N1CCCN(c2cc(-n3nc(Nc4ccc(N5CCN(C(=O)OC(C)C)CC5)cc4)nc3N)ccn2)CC1 [Compound 156]	50 to 500	50 to 500	–	–
CC(=O)N1[C@H](C)CN(c2cc(-n3nc(Nc4ccc(N(C)C(=O)OCC(C)C)cc4)nc3N)ncn2)C[C@@H]1C [Compound 120]	< 50	< 50	–	–
COc1ccc(OC(=O)N(C)c2ccc(Nc3nc(N)n(-c4cc(N5CCCN(C(C)=O)CC5)ncn4)n3)cc2)cc1 [Compound 135]	–	–	< 50	< 50

Further lines, with some results ahead:

Ki (JAK-2 enzyme; [1]) [nM]	Ki (JAK3; [2]) [nM]	Structure (SMILES)	Ki (JAK-2 enzyme) [nM]	Ki (JAK3) [nM]
50 to 500	50 to 500	CCCOC(=O)N1CCN(c2ccc(Nc3nc(N)n(-c4ccnc(N5CCCN(C(=O)OCC)CC5)c4)n3)cc2)CC1 [Compound 159]	–	–
50 to 500	50 to 500	CCCOC(=O)N1CCCN(c2cc(-n3nc(Nc4ccc(N5CCN(C(=O)OCC)CC5)cc4)nc3N)ccn2)CC1 [Compound 150]	–	–
50 to 500	50 to 500	CCCC1CCC(C(=O)Nc2ccc(Nc3nc(N)n(-c4cc(N5CCCN(C(C)=O)CC5)ncn4)n3)cc2)CC1 (stereo not drawn) [Compound 25]	–	–
< 50	< 50	CC(=O)N1CCCN(c2cc(-n3nc(Nc4ccc(NC(=O)NC5CCCCC5)cc4)nc3N)ncn2)CC1 [Compound 88]	–	–
< 50	< 50	CC(=O)N1[C@H](C)CN(c2cc(-n3nc(Nc4ccc(NC(=O)OC(C)C)cc4)nc3N)ncn2)C[C@@H]1C [Compound 78]	–	–
< 50	< 50	CC(=O)N1[C@H](C)CN(c2cc(-n3nc(Nc4ccc(N5CCOCC5)cc4)nc3N)ncn2)C[C@@H]1C [Compound 16]	–	–
< 50	< 50	Nc1nc(Nc2ccc(N3CCOCC3)cc2)nn1-c1ccnc(N2CC3CCC(CC3)C2)c1 [Compound 18]	–	–
< 50	< 50	CC(=O)N1CCCN(c2cc(-n3nc(Nc4ccc(NC(=O)C5CCC(C)CC5)cc4)nc3N)ncn2)CC1 (stereo not drawn) [Compound 24]	–	–
< 50	< 50	CC(=O)N1CCCN(c2cc(-n3nc(Nc4ccc(N(C)C)cc4)nc3N)ncn2)CC1 [Compound 10]	–	–
< 50	< 50	CC(=O)N1CCCN(c2cc(-n3nc(Nc4ccc(N5CCN(C(=O)OC(C)C)CC5)cc4)nc3N)ncn2)CC1 [Compound 48]	–	–
< 50	< 50	Nc1nc(Nc2ccc(N3CCOCC3)cc2)nn1-c1ccnc(N2CCCCCC2)c1 [Compound 19]	–	–
50 to 500	50 to 500	CCCOC(=O)N1CCN(c2ccc(Nc3nc(N)n(-c4ccnc(N5CCCN(S(C)(=O)=O)CC5)c4)n3)cc2)CC1 [Compound 162]	–	–
< 50	< 50	CC(=O)N1[C@H](C)CN(c2cc(-n3nc(Nc4ccc(N5CCN(C(=O)OCC(C)(C)C)CC5)cc4)nc3N)ccn2)C[C@@H]1C [Compound 142]	–	–
< 50	< 50	CC(=O)N1CCCN(c2cc(-n3nc(Nc4ccc(N(C)C(=O)OC(C)(C)C)cc4)nc3N)ncn2)CC1 [Compound 115]	–	–
< 50	< 50	CC(=O)N1CCCN(c2cc(-n3nc(Nc4ccc(NC(=O)OCC(C)(C)C)cc4)nc3N)ncn2)CC1 [Compound 95]	–	–
< 50	< 50	CC(=O)N1CCCN(c2cc(-n3nc(Nc4ccc(N(C)C(=O)OC(C)C)cc4)nc3N)ncn2)CC1 [Compound 130]	–	–
< 50	< 50	CC(=O)Nc1ccc(Nc2nc(N)n(-c3cc(N4CCCN(C(C)=O)CC4)ncn3)n2)cc1 [Compound 11]	–	–
50 to 500	50 to 500	CCOC(=O)N1CCCN(c2cc(-n3nc(Nc4ccc(N5CCN(S(=O)(=O)CC)CC5)cc4)nc3N)ccn2)CC1 [Compound 153]	–	–
